One experiment has as its system Panc-1 cells. Kind of experiment: Cell proliferation MTS assay, Panc-1. As to conditions: Homo sapiens, 72 h. Format: cell-based. The method, then: (§1) Assays of cell proliferation and clonogenicity. Cells were seeded at 2000 cells/well in 96-well plates and treated at 37° C. for 72 h before MTS [3-(4,5-dimethylthiazol-2-yl)-5-(3-carboxymethoxyphenyl)-2-(4-sulfophenyl)-2H- tetrazolium] assay. The proportion of viable cells was normalized to that of untreated cells and expressed as mean±standard error of the mean (n=6). […] Cells were seeded at 1000 cells per 10-cm plate in growth medium overnight and treated at 37° C. for 10 days. At the end of this 10-day period, colonies were fixed with formalin and stained with crystal violet. Colonies with more than 20 cells were counted.
(In general: Tetrazolium dyes change colour on reduction, which living cells bring about.)

Experiment [1] relates to Miapaca-2 cells. Kind of experiment: Cell proliferation MTS assay, Miapaca-2. In kind it is cell-based. As to conditions: Homo sapiens, MIA PaCa-2, 72 h. The protocol:
as §1

The subject of the next experiment is L3.6pl cells. Description: Cell proliferation MTS assay, L3.6pl. Format: cell-based. As to conditions: Homo sapiens, 72 h. The method, then: as §1
The subject of experiment [2] is spontaneous PDAC of KPC-luc mice. Description: Survival study in KPC-luc mice. As to conditions: KPC-luc mice enrolled at 95 to 100 days of age; CTL 139 days. In kind it is in vivo. The method, then: FIG. 22: Antitumor efficacy of M-CPA/PTX in a transgenic mice model with spontaneous PDAC in the pancreas of KPC-Luc mice. Mice with positive bioluminescence signals were enrolled at 95 to 100 days of age. M-CPA/PTX was given at 5 mg/kg/drug per injection. The treatment schedule was: 3 intravenous injections per week for the first 2 weeks, followed by 2 intraperitoneal injections per week until death or 90 days from the initiation of treatment. Untreated mice were kept as control (CTL). Gemcitabine and abraxane were used as the standard therapies. Gemcitabine was intraperitoneally injected at 100 mg/kg every other day until death. Abraxane was given at 5 mg/kg/injection following the same schedule as M-CPA/PTX.
The genetically engineered mouse model of PDAC (the KPC-luc mouse model) was also used to test for the antitumor efficacy of drug-loaded micelles on tumors in a survival study. […] The mice were assigned into four different groups: (1) mice with untreated […] (control group), (2) mice intravenously injected gemcitabine at 100 mg/kg every other day until death, (3) mice given Abraxane at 5 mg/kg/injection, and (4) M-CPA/PTX given at 5 mg/kg/drug per injection. […]

The test system of experiment [3] is Miapaca-2 cells. Kind of experiment: Clonogenicity assay, Miapaca-2. As to conditions: 3 μM, 10 days, vs no treatment. Format: cell-based, human. The protocol: as §1
Another experiment deals with HPSCs. Description: Cell proliferation MTS assay, HPSCs. Format: cell-based. As to conditions: 72 h, read-out: IC50, HPSC proliferation. The protocol: as §1

In the case of `CC(=O)O[C@H]1C(=O)[C@@]2(C)[C@H]([C@H](OC(=O)c3ccccc3)[C@]3(O)C[C@H](OC(=O)[C@H](O)[C@@H](NC(=O)c4ccccc4)c4ccccc4)C(C)=C1C3(C)C)[C@]1(OC(C)=O)CO[C@@H]1C[C@@H]2O` [PTX, paclitaxel], the IC50 with Panc-1 cells turned out to be 0.0024 ± 0.0004 µM; in the experiment on Miapaca-2 cells [1] it was 0.0012 ± 0.0001 µM; in the experiment with L3.6pl cells, 0.0014 ± 0.0001 µM.

On to `Nc1ccn([C@@H]2O[C@H](CO)[C@@H](O)C2(F)F)c(=O)n1` [gemcitabine], for which, in experiment [2], the median survival is reported as 167 days.

`CC1=C2C[C@H]3[C@@H](CC=C4C[C@@H](O)CC[C@@]43C)[C@@H]2CC[C@]12O[C@@H]1C[C@H](C)CN[C@H]1[C@H]2C` [CPA, cyclopamine]: the “reduction of the number of colonies” value in the experiment with Miapaca-2 cells [3] amounted to 18.2±1.3%. For the same molecule, the IC50 in the experiment with HPSCs was 13.3 ± 1.2 µM; with Panc-1 cells, roughly 163 µM; in the experiment on Miapaca-2 cells [1], 10.2 ± 0.1 µM; with L3.6pl cells it was 16 ± 1.5 µM.

These data come from patent US11026889B2, “Polymeric drug delivery systems for treatment of disease” (Board of Regents, The University of Texas System, priority 2015, dated 2021).
